Test results taken from patent US20230286969A1, “AROMATIC SPIRO RING AMIDE DERIVATIVES FOR THE TREATMENT AND PROPHYLAXIS OF HEPATITIS B VIRUS INFECTION” (Hoffmann-La Roche Inc., priority 2020, published 2023).
Like-named read-outs stand apart in the source and are kept apart here.

Key:
Assay type in all cases: cell-based
[1] = system: HBeAg; test: PHH HBV natural infection assay, HBeAg (alphalisa)
Description: (§1) Detailed procedures regarding primary human hepatocyte (PHH) HBV natural infection assay are described as below. One tube of frozen PHH (10 million cells) is thawed in 37° C. water bath and then transferred to 20 mL of PHH thawing medium (Sigma, InVitroGRO HT Medium, Cat. S03319) with gently mixing. The cells were then centrifuged at […] for 5 min, the supernatant was discarded and the tube was refilled with 25 mL of PHH plating medium (Sigma, InVitroGRO CP Medium, Cat. S03317). The tube was shaken very gently to re-suspend all cells, and then 50 μl of cells were transferred to each well 384-well collagen I coated plate with appropriate liquid handling equipment, e.g. Integra VIAFLO384 or Agilent Bravo. The cells were then cultured for 24 hours in a cell incubator. For HBV infection, after PHH attachment on the culture plate, the plating medium was removed and replenished with PHH culture medium containing HBV virus. The PHH culture medium was prepared with Dulbecco's Modified Eagle Medium (DMEM)/F12 (1:1 in volume ratio) containing 10% fetal bovine serum (Gibco, Cat. 10099141), 5 ng/mL human epidermal growth factor (Gibco, Cat.PHG0311L), 20 ng/mL dexamethasone (Sigma, Cat.D4902-100 mg), 250 ng/mL human recombinant insulin (Gibco, Cat.41400045) and 100 U/mL penicillin. HBV virus at 200 genome equivalent (GE) per cell with 4% PEG8000 (Sigma, Cat.P1458) containing culture medium were added to the PHH culture medium for infection. The cells were then cultured for 24 hours in cell incubator. Then the cell culture supernatant was removed. The HBV-infected PHH were cultured with sandwich culture method with PHH culture medium containing 1% DMSO and 0.25 mg/mL matrix gel for 72 hours. The supernatant was then refreshed with PHH culture medium containing different concentrations of testing compounds for two times with 72-hour interval. At the end of treatment, the supernatant was collected for viral markers measurements, including HBsAg, HBeAg, HBV DNA and cytotoxicity. HBsAg and HBeAg were detected using alphalisa method using their specific antibodies. For HBV DNA detection, HBV DNA Quantitative Fluorescence Diagnostic Kit (Sansure Biotech Inc.) was used following the manufacture's protocol. Cytotoxicity was determined using Cell Counting Kit-8 (CCK8, Dojindo Molecular Technologies, Inc.).
(§2) The compounds of the present invention were tested for their capacity to inhibit HBsAg and HBeAg as described herein.

[2] = system: HBsAg; test: PHH HBV natural infection assay, HBsAg (alphalisa)
Description: as §1, §2

[3] = PHH natural infection assay, cytotoxicity (Cell Counting Kit-8); details: human, HBV-infected primary human hepatocytes, CCK8, end of treatment
Description: as §1

[4] = Hepatitis B virus, Hepatocyte, 72 h, read-out: HbeAg IC50, HBV-infected primary human hepatocytes, supernatant, compound medium refreshed two times with 72-hour interval
[5] = Hepatitis B virus, Hepatocyte, 72 h, read-out: HBsAg IC50, HBV-infected primary human hepatocytes, supernatant, compound medium refreshed two times with 72-hour interval

Compound [H][C@]1(NC(=O)c2ccc([S@](C)(=N)=O)o2)C[C@]2(C1)C[C@]([H])(c1nc3cc(Cl)ccc3o1)C2 (stereo partly drawn) [Example 52-d, (Ra)—N-[6-(5-chloro-1,3-benzoxazol-2-yl)spiro[3.3]heptan-2-yl]-5-[(R)-methylsulfonimidoyl]furan-2-carboxamide] has an IC50 [1, 4] of 0.876 µM, an IC50 [2, 5] of 0.966 µM and a CC50 at 144 h [3] of over 100 µM.

O=C(NC1CC2(C1)CC(c1nc3cc(Cl)ccc3o1)C2)c1ccc(S(=O)(=O)C(F)(F)F)o1 (stereo not drawn) [Example 43, N-[6-(5-chloro-1,3-benzoxazol-2-yl)spiro[3.3]heptan-2-yl]-5-(trifluoromethylsulfonyl)furan-2-carboxamide] showed an IC50 [1, 4] of 0.839 µM, an IC50 [2, 5] of 1.14 µM and a CC50 at 144 h [3] of over 100 µM.

In the case of O=C(NC1CC2(C1)CC(c1nc3cc(Cl)ccc3o1)C2)c1ccc(S(=O)(=O)NC(=O)C2CCCCC2)o1 (stereo not drawn) [Example 82, N-[6-(5-chloro-1,3-benzoxazol-2-yl)spiro[3.3]heptan-2-yl]-5-(cyclohexanecarbonylsulfamoyl)furan-2-carboxamide], the IC50 [1, 4] is reported as 0.224 µM, the IC50 [2, 5] is reported as 0.461 µM and the CC50 at 144 h [3] is reported as 85.7 µM.

With CCCC(=O)NS(=O)(=O)c1ccc(C(=O)N[C@H]2CC3(C2)C[C@H](c2nc4cc(Cl)ccc4o2)C3)o1 (stereo partly drawn) [Example 69] the IC50 [1, 4] was 0.223 µM, the IC50 [2, 5] was 0.329 µM and the CC50 at 144 h [3] was over 100 µM.

In the case of CC(C)c1ccc(C(=O)NC2CC3(C2)CC(c2nc4cc(Cl)ccc4o2)C3)o1 (stereo not drawn) [Example 7, N-[6-(5-chloro-1,3-benzoxazol-2-yl)spiro[3.3]heptan-2-yl]-5-isopropyl-furan-2-carboxamide], the IC50 [1, 4] is reported as 1.34 µM, the IC50 [2, 5] is reported as 3.57 µM and the CC50 at 144 h [3] is reported as 85.9 µM.

For CCOC(=O)NS(=O)(=O)c1ccc(C(=O)N[C@H]2CC3(C2)C[C@H](c2nc4cc(Cl)ccc4o2)C3)o1 (single isomer, unassigned) [Example 74, (Sa)-ethyl N-[[5-[[6-(5-chloro-1,3-benzoxazol-2-yl)spiro[3.3]heptan-2-yl]carbamoyl]-2-furyl]sulfonyl]carbamate, or (Ra)-ethyl N-[[5-[[6-(5-chloro-1,3-benzoxazol-2-yl)spiro[3.3]heptan-2-yl]carbamoyl]-2-furyl]sulfonyl]carbamate], the IC50 [1, 4] was 5.92 µM, the IC50 [2, 5] was 6.67 µM and the CC50 at 144 h [3] was over 10 µM.

For O=C(NC1CC2(C1)CC(c1nc3cc(Cl)ccc3o1)C2)c1ccc(S(=O)(=O)NC(=O)C2CCOCC2)o1 (stereo not drawn) [Example 87, N-[[5-[[6-(5-chloro-1,3-benzoxazol-2-yl)spiro[3.3]heptan-2-yl]carbamoyl]-2-furyl]sulfonyl]tetrahydropyran-4-carboxamide], the IC50 [1, 4] was 0.981 µM, the IC50 [2, 5] was 1.3 µM and the CC50 at 144 h [3] was over 10 µM.

O=C(N[C@H]1CC2(C1)C[C@H](c1nc3cc(Cl)ccc3o1)C2)c1ccc(S(=O)(=O)NC(=O)C2CCOC2)o1 (stereo partly drawn) [Example 77, (Sa)—N-[6-(5-chloro-1,3-benzoxazol-2-yl)spiro[3.3]heptan-2-yl]-5-(tetrahydrofuran-3-carbonylsulfamoyl)furan-2-carboxamide, or (Ra)—N-[6-(5-chloro-1,3-benzoxazol-2-yl)spiro[3.3]heptan-2-yl]-5-(tetrahydrofuran-3-carbonylsulfamoyl)furan-2-carboxamide] gave an IC50 [1, 4] of 0.563 µM, an IC50 [2, 5] of 1.16 µM and a CC50 at 144 h [3] of over 100 µM.

In the case of N=S(=O)(c1ccc(C(=O)NC2CC3(C2)CC(c2nc4cc(Cl)ccc4o2)C3)o1)N1CCCC1 (stereo not drawn) [Example 66, N-[6-(5-chloro-1,3-benzoxazol-2-yl)spiro[3.3]heptan-2-yl]-5-(pyrrolidin-1-ylsulfonimidoyl)furan-2-carboxamide], the IC50 [1, 4] is reported as 3.81 µM, the IC50 [2, 5] is reported as 8.18 µM and the CC50 at 144 h [3] is reported as over 10 µM.

C[S+]([O-])c1ccc(C(=O)NC2CC3(C2)CC(c2nc4cc(Cl)ccc4o2)C3)o1 (stereo not drawn) [Example 14, N-[6-(5-chloro-1,3-benzoxazol-2-yl)spiro[3.3]heptan-2-yl]-5-methylsulfinyl-furan-2-carboxamide] showed an IC50 [1, 4] of 0.854 µM, an IC50 [2, 5] of 1.61 µM and a CC50 at 144 h [3] of 76.5 µM.

With CNS(=O)(=O)c1ccc(C(=O)NC2CC3(C2)CC(c2nc4cc(Cl)ccc4o2)C3)o1 (stereo not drawn) [Example 88, N-[6-(5-chloro-1,3-benzoxazol-2-yl)spiro[3.3]heptan-2-yl]-5-(methylsulfamoyl)furan-2-carboxamide] the IC50 [1, 4] was 0.687 µM, the IC50 [2, 5] was 1 µM and the CC50 at 144 h [3] was over 10 µM.

Work on N#Cc1ccc(C(=O)NC2CC3(C2)CC(c2nc4cc(Cl)ccc4o2)C3)o1 (stereo not drawn) [Example 2, N-[6-(5-chloro-1,3-benzoxazol-2-yl)spiro[3.3]heptan-2-yl]-5-cyano-furan-2-carboxamide] yielded an IC50 [1, 4] of 4.06 µM, an IC50 [2, 5] of 5.86 µM and a CC50 at 144 h [3] of 61.6 µM.

For CC(C)(C)[S+]([O-])c1ccc(C(=O)NC2CC3(C2)CC(c2nc4cc(Cl)ccc4o2)C3)o1 (stereo not drawn) [Example 38, 5-tert-butylsulfinyl-N-[6-(5-chloro-1,3-benzoxazol-2-yl)spiro[3.3]heptan-2-yl]furan-2-carboxamide], the IC50 [1, 4] was 0.317 µM, the IC50 [2, 5] was 0.526 µM and the CC50 at 144 h [3] was 96.3 µM.

CC(C)S(=N)(=O)Cc1ccc(C(=O)NC2CC3(C2)CC(c2nc4cc(Cl)ccc4o2)C3)o1 (stereo not drawn) [Example 59, N-[6-(5-chloro-1,3-benzoxazol-2-yl)spiro[3.3]heptan-2-yl]-5-[(isopropylsulfonimidoyl)methyl]furan-2-carboxamide] showed an IC50 [1, 4] of 2.6 µM, an IC50 [2, 5] of 3.81 µM and a CC50 at 144 h [3] of over 100 µM.

O=C(NC1CC2(C1)CC(c1nc3cc(Cl)ccc3o1)C2)c1ccc([S+]([O-])CC2CC2)o1 (stereo not drawn) [Example 19, N-[6-(5-chloro-1,3-benzoxazol-2-yl)spiro[3.3]heptan-2-yl]-5-(cyclopropylmethylsulfinyl)furan-2-carboxamide] gave an IC50 [1, 4] of 0.045 µM, an IC50 [2, 5] of 0.036 µM and a CC50 at 144 h [3] of 94.5 µM.

With O=C(NC1CC2(C1)CC(c1nc3cc(Cl)ccc3o1)C2)c1ccc(S2(=O)=NCCC2)o1 (stereo not drawn) [Example 61, N-[6-(5-chloro-1,3-benzoxazol-2-yl)spiro[3.3]heptan-2-yl]-5-(1-oxo-4,5-dihydro-3H-isothiazol-1-yl)furan-2-carboxamide] the IC50 [1, 4] was 3.14 µM, the IC50 [2, 5] was 3.65 µM and the CC50 at 144 h [3] was over 100 µM.

Work on O=C(NC1CC2(C1)CC(c1nc3cc(Cl)ccc3o1)C2)c1ccc(S(=O)(=O)NC(=O)C2CCS(=O)(=O)C2)o1 (stereo not drawn) [Example 84, N-[6-(5-chloro-1,3-benzoxazol-2-yl)spiro[3.3]heptan-2-yl]-5-[(1,1-dioxothiolane-3-carbonyl)sulfamoyl]furan-2-carboxamide] yielded an IC50 [1, 4] of 6.32 µM, an IC50 [2, 5] of 9 µM and a CC50 at 144 h [3] of over 10 µM.

Compound NS(=O)(=O)c1ccc(C(=O)NC2CC3(C2)CC(c2nc4cc(Cl)ccc4o2)C3)o1 (single isomer, unassigned) [Example 29-a, N-[6-(5-chloro-1,3-benzoxazol-2-yl)spiro[3.3]heptan-2-yl]-5-sulfamoyl-furan-2-carboxamide] has an IC50 ([1]; read-out: HbeAg IC50, HBV-infected primary human hepatocytes, supernatant, compound medium refreshed two times with 72-hour interval) of 2.28 µM, an IC50 ([2]; read-out: HBsAg IC50, HBV-infected primary human hepatocytes, supernatant, compound medium refreshed two times with 72-hour interval) of 5.12 µM and a CC50 at 144 h [3] of over 100 µM.

Compound O=C(NC1CC2(C1)CC(c1nc3cc(Cl)ccc3o1)C2)c1ccc(Cl)o1 (stereo not drawn) [Example 6, 5-chloro-N-[6-(5-chloro-1,3-benzoxazol-2-yl)spiro[3.3]heptan-2-yl]furan-2-carboxamide] has an IC50 [1, 4] of 2.08 µM, an IC50 [2, 5] of 2.77 µM and a CC50 at 144 h [3] of over 100 µM.

Compound CS(=O)(=O)c1ccc(C(=O)NC2CC3(C2)CC(c2nc4cc(Cl)cnc4o2)C3)o1 (stereo not drawn) [Example 48, N-[6-(6-chlorooxazolo[5,4-b]pyridin-2-yl)spiro[3.3]heptan-2-yl]-5-methylsulfonyl-furan-2-carboxamide] has an IC50 [1, 4] of 1.82 µM, an IC50 [2, 5] of 2.4 µM and a CC50 at 144 h [3] of over 100 µM.

CCS(=N)(=O)Cc1ccc(C(=O)NC2CC3(C2)CC(c2nc4cc(Cl)ccc4o2)C3)o1 (stereo not drawn) [Example 58, N-[6-(5-chloro-1,3-benzoxazol-2-yl)spiro[3.3]heptan-2-yl]-5-[(ethylsulfonimidoyl)methyl]furan-2-carboxamide] gave an IC50 [1, 4] of 5.88 µM, an IC50 [2, 5] of 8.79 µM and a CC50 at 144 h [3] of over 100 µM.

NS(=O)(=O)NCc1ccc(C(=O)NC2CC3(C2)CC(c2nc4cc(Cl)ccc4o2)C3)o1 (stereo not drawn) [Example 35, N-[6-(5-chloro-1,3-benzoxazol-2-yl)spiro[3.3]heptan-2-yl]-5-[(sulfamoylamino)methyl]furan-2-carboxamide] gave an IC50 [1, 4] of 6.53 µM, an IC50 [2, 5] of 7.81 µM and a CC50 at 144 h [3] of 98.3 µM.
